This is an account of results in US9598459B2, “Pharmaceutical compositions and methods” (priority 2015, dated 2017).

The test system of one data set is Tacaribe TRVL11573. The data set is described as follows: microbe, parasite or virus in culture. To be noted: Mammarenavirus tacaribeense, Vero. The data set is classed as cell-based, Tacaribe virus.
The test system of the next data set is MDCK. To be noted: dog.
In a further data set the test system is HG23. To be noted: human.
The next data set addresses GR (Mus musculus, UniProt P06537). To be noted: cited from earlier work.
The nature of another data set: Cytotoxicity on CCRF-CEM. To be noted: human.
The next data set relates to CCRF-CEM. In words: Cytotoxicity on CCRF-CEM. To be noted: CCRF-CEM.

A word on the EC50: it is the concentration giving half of the maximal effect.

Values after ≈ are worked out from the molar mass of the structure shown. Values joined by “and” are separate entries in the source; they are usually repeats but may differ in a detail not shown here. Equal values may be shown once. Read-outs that look alike come from different tables or passages of the source.

GR, sequence (P06537 whole entry): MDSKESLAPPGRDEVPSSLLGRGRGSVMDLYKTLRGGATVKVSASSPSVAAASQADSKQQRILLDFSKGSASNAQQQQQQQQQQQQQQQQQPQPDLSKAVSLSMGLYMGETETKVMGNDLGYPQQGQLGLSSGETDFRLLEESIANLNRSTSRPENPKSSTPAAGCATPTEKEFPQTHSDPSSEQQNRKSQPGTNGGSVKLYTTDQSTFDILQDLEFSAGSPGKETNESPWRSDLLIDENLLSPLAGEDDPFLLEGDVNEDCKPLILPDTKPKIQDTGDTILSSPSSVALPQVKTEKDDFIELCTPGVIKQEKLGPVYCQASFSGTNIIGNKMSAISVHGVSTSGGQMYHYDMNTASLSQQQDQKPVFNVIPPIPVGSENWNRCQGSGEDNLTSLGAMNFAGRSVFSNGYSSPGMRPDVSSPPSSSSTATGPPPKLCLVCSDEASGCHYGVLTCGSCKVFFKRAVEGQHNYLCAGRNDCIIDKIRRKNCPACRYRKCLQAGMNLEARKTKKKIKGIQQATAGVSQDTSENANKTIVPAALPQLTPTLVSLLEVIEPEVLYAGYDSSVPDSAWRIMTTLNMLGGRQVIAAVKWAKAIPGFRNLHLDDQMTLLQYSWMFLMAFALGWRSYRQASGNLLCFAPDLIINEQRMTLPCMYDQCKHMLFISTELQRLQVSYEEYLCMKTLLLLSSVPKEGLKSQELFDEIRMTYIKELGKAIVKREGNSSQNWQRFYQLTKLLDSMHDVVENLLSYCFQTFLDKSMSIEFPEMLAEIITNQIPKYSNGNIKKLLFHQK

Regarding `CC#C[C@]1(O)CC[C@H]2[C@@H]3CCC4=CC(=O)CCC4=C3[C@@H](c3ccc4c(c3)OCO4)C[C@@]21C` [PT150, (11β,17β)-11-(1,3-benzodioxol-5-yl)-17-hydroxy-17-(1-propynyl)-estra-4,9-dien-3-one], the EC50 in the data set on Tacaribe TRVL11573 is 7.2 µM and 3.1 µg/mL. The CC50 turned out to be 37 µg/mL (≈ 85.9 µM) in the data set with MDCK; 8.7 µM with HG23; 15.4 µM in the data set “Cytotoxicity on CCRF-CEM” (CCRF-CEM cells (T-lymphoblastic acute T cell leukemia), Cytotoxicity CC50, CCRF-CEM); 15.4 µM in “Cytotoxicity on CCRF-CEM” (CCRF-CEM cells, CC50, Cytotoxicity control, CCRF-CEM, CellTiter MTS). Besides, the “block of corticosterone-induced GR translocation” value at GR is reported as “able to block corticosterone-induced GR translocation”.
Consider `CC#CC1(O)CCC2C3CCC4=CC(=NNC(N)=S)CCC4=C3C(c3ccc4c(c3)OCO4)CC21C.CC#CC1(O)CCC2C3CCC4=CC(=O)CCC4=C3C(c3ccc4c(c3)OCO4)CC21C.CC(C)=O.CCO.O` (stereo not drawn) [PT155, ⅓ (11β,17β)-17-Hydroxy-11-[3,4-(methylenedioxy)phenyl]-17-(1-propyn-1-yl)estra-4,9-dien-3-one (ORG34517)×(2EZ)-2-{(11β,17β)-17-hydroxy-11-[3,4-(methylenedioxy)phenyl]-17-(1-propyn-1-yl)estra-4,9-dien-3-ylidene}hydrazinecarbothioamide [71.8% (E), 28.2% (Z)] hemihydrate×¾% acetone× ⅛ ethanol], for which the CC50 in the data set with HuH-7 stood at 39.7 µM; with CCRF-CEM (Cytotoxicity control, CellTiter MTS), 7.1 µM; in the data set with CCRF-CEM (read-out: Cytotoxicity CC50), 7.1 µM.
